Laboratory results from patent publication US20080318943A1, “Compounds and Uses Thereof - 848” (ASTRAZENECA AB, priority 2007, published 2008).

Assays:
GABAA receptor α1β2γ2 = target: T1, GABAA receptor α1β2γ2 (Homo sapiens, UniProt P14867+P18507); experiment: Two-electrode voltage-clamp potentiation of GABA EC10 current in Xenopus oocytes, GABAA1; assay type: cell-based; conditions: percentage potentiation of GABA EC10 current divided by that of diazepam
T1 construct: expressed in transfected cells; host or cells: Xenopus laevis oocytes injected with cRNA
T1 sequence (P14867 28-456): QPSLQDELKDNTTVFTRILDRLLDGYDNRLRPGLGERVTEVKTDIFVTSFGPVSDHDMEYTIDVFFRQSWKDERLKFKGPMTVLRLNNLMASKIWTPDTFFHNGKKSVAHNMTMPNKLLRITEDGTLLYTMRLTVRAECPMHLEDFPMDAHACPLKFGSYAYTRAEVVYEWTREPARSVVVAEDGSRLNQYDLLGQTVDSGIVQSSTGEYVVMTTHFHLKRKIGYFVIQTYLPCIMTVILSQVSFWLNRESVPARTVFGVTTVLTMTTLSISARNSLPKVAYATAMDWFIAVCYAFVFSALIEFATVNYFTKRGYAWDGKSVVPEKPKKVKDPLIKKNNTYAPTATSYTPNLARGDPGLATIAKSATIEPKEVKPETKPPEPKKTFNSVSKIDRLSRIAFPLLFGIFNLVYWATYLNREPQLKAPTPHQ
T1 sequence (P47870 25-512 partner limits assumed): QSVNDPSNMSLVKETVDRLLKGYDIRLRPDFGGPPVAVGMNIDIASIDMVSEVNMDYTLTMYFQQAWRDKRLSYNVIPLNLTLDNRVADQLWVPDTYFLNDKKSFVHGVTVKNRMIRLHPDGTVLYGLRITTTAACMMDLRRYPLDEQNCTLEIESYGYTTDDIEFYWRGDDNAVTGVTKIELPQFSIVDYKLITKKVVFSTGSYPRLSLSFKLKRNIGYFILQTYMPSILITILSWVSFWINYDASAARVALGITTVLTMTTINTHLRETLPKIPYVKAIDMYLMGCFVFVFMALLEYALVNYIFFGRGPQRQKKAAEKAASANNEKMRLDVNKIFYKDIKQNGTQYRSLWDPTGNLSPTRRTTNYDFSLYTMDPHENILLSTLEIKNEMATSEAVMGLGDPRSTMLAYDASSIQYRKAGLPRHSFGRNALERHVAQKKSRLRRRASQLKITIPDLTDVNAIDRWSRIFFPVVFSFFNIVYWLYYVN
T1 sequence (P18507 40-475): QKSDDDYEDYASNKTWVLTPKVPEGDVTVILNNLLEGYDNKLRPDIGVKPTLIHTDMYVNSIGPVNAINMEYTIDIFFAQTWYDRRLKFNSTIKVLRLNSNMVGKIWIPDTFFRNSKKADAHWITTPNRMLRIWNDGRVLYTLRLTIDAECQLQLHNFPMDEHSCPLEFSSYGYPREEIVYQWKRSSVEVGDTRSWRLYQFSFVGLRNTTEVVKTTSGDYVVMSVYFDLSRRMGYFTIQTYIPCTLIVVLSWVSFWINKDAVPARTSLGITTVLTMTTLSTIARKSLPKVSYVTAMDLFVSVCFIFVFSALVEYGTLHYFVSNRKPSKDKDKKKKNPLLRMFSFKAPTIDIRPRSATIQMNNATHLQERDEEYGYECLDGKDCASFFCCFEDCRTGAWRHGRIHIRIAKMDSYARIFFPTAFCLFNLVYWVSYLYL
How it was run: (§1)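 Human GABAA receptors expressed in Xenopus oocytes by cRNA injection (α:β:γ molar ratio ~1:1:10 for α1β2γ2, 1:1:1 for α2β3γ2), recorded 2-10 days later by two-electrode voltage clamp at −60 mV in ND-96, pH 7.5. Modulator preapplied 30 s before GABA at per-oocyte EC10. Peak-current percent potentiation over GABA alone, normalised to diazepam.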

GABAA receptor α2β3γ2 = target: T2, GABAA receptor α2β3γ2 (Homo sapiens, UniProt P18507+P47869); experiment: Two-electrode voltage-clamp potentiation of GABA EC10 current in Xenopus oocytes, GABAA2; assay type: cell-based; conditions: percentage potentiation of GABA EC10 current divided by that of diazepam
T2 construct: expressed in transfected cells; host or cells: Xenopus laevis oocytes injected with cRNA
T2 sequence (P47869 29-451): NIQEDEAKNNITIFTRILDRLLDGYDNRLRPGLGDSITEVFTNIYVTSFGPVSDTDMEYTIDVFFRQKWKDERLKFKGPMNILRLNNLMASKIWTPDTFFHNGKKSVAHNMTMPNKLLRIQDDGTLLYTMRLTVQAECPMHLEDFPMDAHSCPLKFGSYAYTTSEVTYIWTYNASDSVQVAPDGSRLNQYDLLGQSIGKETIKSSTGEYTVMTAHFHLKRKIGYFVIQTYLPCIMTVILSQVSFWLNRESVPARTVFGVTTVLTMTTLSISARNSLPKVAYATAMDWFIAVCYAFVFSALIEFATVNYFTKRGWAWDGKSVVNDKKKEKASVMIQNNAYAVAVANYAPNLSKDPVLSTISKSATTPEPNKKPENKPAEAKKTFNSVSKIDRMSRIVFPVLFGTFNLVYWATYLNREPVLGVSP
T2 sequence (P28472 26-473 partner): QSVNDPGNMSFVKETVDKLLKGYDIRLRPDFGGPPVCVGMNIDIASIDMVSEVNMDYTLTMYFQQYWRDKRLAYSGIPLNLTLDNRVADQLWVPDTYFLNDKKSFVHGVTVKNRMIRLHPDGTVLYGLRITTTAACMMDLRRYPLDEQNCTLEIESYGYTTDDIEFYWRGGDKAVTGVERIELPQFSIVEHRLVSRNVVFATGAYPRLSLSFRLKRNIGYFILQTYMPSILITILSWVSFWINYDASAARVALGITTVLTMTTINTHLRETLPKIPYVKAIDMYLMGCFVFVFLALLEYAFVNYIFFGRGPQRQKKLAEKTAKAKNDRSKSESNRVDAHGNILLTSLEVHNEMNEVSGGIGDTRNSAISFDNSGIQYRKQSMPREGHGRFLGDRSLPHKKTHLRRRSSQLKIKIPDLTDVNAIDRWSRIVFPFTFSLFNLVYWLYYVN
T2 sequence (P18507 40-475): as the sequence (P18507 40-475) above
How it was run: as §1

[1] = target: T3, GABAA2 receptors (α2, β3, γ2 receptor subunits transfected into Sf9 cells) (Homo sapiens, UniProt P18507+P47869); experiment: GABAA2 Binding Method ([3H]-Flunitrazepam displacement); conditions: [3H]-Flunitrazepam ~2 nM, α2β3γ2 Sf9 membranes, 1 hr at 4° C.
T3 construct: host or cells: Sf9 cells (membranes)
T3 sequence (P47869 29-451): as the sequence (P47869 29-451) above
T3 sequence (P28472 26-473 partner): as the sequence (P28472 26-473 partner) above
T3 sequence (P18507 40-475): as the sequence (P18507 40-475) above
How it was run: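 Membranes from Sf9 cells expressing α2β3γ2 GABAA receptors incubated with ~2 nM (final) [3H]-flunitrazepam and test compound 1 h at 4 °C, then filtered on GF/B plates with cold-buffer washes. Flumazenil-defined controls; percent of control, IC50 and Ki calculated.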

[2] = listed as 9-amino-6-fluoro-5-(2-fluoro-6-methoxyphenyl)-2-methyl-2,3-dihydro-1H-pyrrolo[3

Relative Potentiation for GABAA1 (GABAA receptor α1β2γ2)	Relative Potentiation for GABAA2 (GABAA receptor α2β3γ2)	Ki [1] [nM]	Relative Potentiation for GABAA1 (GABAA receptor α1β2γ2; [2])	Relative Potentiation for GABAA2 (GABAA receptor α2β3γ2; [2])	Structure (SMILES)
−0.05	0.2	22.1	–	–	CCN1Cc2nc3c(-c4ccc(F)cc4OC)cccc3c(N)c2C1=O [Example 32, 9-Amino-2-ethyl-5-(4-fluoro-2-methoxyphenyl)-2,3-dihydropyrrolo[3,4-b]quinolin-1-one]
0.01	0.21	9.93	–	–	CCN1Cc2nc3c(-c4cccc(OC)c4F)cccc3c(N)c2C1=O [Example 33, 9-Amino-2-ethyl-5-(2-fluoro-3-methoxyphenyl)-2,3-dihydropyrrolo[3,4-b]quinolin-1-one]
−0.075	0.24	2.59	–	–	COc1cccc(F)c1-c1c(F)ccc2c(N)c3c(nc12)CN(C1CC1)C3=O [Example 35, 9-Amino-2-cyclopropyl-6-fluoro-5-(2-fluoro-6-methoxyphenyl)-2,3-dihydropyrrolo[3,4-b]quinolin-1-one]
0.11	0.26	2.59	–	–	COc1ncccc1-c1c(F)ccc2c(N)c3c(nc12)CN(C1CC1)C3=O [Example 38, 9-Amino-2-cyclopropyl-6-fluoro-5-(2-methoxypyridin-3-yl)-2,3-dihydropyrrolo[3,4-b]quinolin-1-one]
0.18	0.26	5.11	–	–	COc1ccc(OC)c(CN2Cc3nc4c(-c5cnccc5OC)cccc4c(N)c3C2=O)c1 [Example 39, 9-Amino-2-(2,5-dimethoxybenzyl)-5-(4-methoxypyridin-3-yl)-2,3-dihydropyrrolo[3,4-b]quinolin-1-one]
0.13	0.28	2.35	–	–	COc1ccncc1-c1c(F)ccc2c(N)c3c(nc12)CN(C1CC1)C3=O [Example 41, 9-Amino-2-cyclopropyl-6-fluoro-5-(4-methoxypyridin-3-yl)-2,3-dihydropyrrolo[3,4-b]quinolin-1-one]
0.13	0.35	6.64	–	–	COc1ncc(-c2c(F)ccc3c(N)c4c(nc23)CN(C2CC2)C4=O)c(OC)n1 [Example 44, 9-Amino-2-cyclopropyl-5-(2,4-dimethoxypyrimidin-5-yl)-6-fluoro-2,3-dihydropyrrolo[3,4-b]quinolin-1-one]
−0.11	0.26	13.2	–	–	CCN1Cc2nc3c(-c4ccccc4OC)c(F)ccc3c(N)c2C1=O [Example 45, 9-Amino-2-ethyl-6-fluoro-5-(2-methoxyphenyl)-2,3-dihydropyrrolo[3,4-b]quinolin-1-one]
−0.008	0.3	17.3	–	–	CCN1Cc2nc3c(-c4cc(F)ccc4OC)c(F)ccc3c(N)c2C1=O [Example 46, 9-Amino-2-ethyl-6-fluoro-5-(5-fluoro-2-methoxyphenyl)-2,3-dihydropyrrolo[3,4-b]quinolin-1-one]
0.068	0.27	4.52	–	–	CCN1Cc2nc3c(-c4ccc(OC)c(OC)c4)c(F)ccc3c(N)c2C1=O [Example 47, 9-Amino-5-(3,4-dimethoxyphenyl)-2-ethyl-6-fluoro-2,3-dihydropyrrolo[3,4-b]quinolin-1-one]
0.12	0.58	2.53	–	–	COc1ccc(Cl)cc1-c1cccc2c(N)c3c(nc12)CN(C1CCC1)C3=O [Example 49, 9-Amino-5-(5-chloro-2-methoxyphenyl)-2-cyclobutyl-2,3-dihydropyrrolo[3,4-b]quinolin-1-one]
0.1	0.24	2.13	–	–	COc1ccc(-c2cccc3c(N)c4c(nc23)CN(C2CCC2)C4=O)c(OC)c1 [Example 53, 9-Amino-2-cyclobutyl-5-(2,4-dimethoxyphenyl)-2,3-dihydropyrrolo[3,4-b]quinolin-1-one]
0.083	0.24	4.98	–	–	CCCN1Cc2nc3c(-c4c(F)cccc4F)cccc3c(N)c2C1=O [Example 56, 9-Amino-5-(2,6-difluorophenyl)-2-propyl-2,3-dihydro-pyrrolo[3,4-b]quinolin-1-one]
0.079	0.26	21.4	–	–	CCN1Cc2nc3c(-c4cnccc4OC)cccc3c(N)c2C1=O [Example 57, 9-Amino-2-ethyl-5-(4-methoxypyridin-3-yl)-2,3-dihydropyrrolo[3,4-b]quinolin-1-one]
−0.055	0.28	4.08	–	–	CCN1Cc2nc3c(-c4cccnc4OC)c(F)ccc3c(N)c2C1=O [Example 58, 9-Amino-2-ethyl-6-fluoro-5-(2-methoxypyridin-3-yl)-2,3-dihydropyrrolo[3,4-b]quinolin-1-one]
0.094	0.25	11.4	–	–	Nc1c2c(nc3c(-c4cc(Cl)ccc4Cl)cccc13)CN(C1CC1)C2=O [Example 59, 9-Amino-2-cyclopropyl-5-(2,5-dichlorophenyl)-2,3-dihydropyrrolo[3,4-b]quinolin-1-one]
0.09	0.44	1.84	–	–	COc1ccncc1-c1cccc2c(N)c3c(nc12)CN(C1CCC1)C3=O [Example 62, 9-Amino-2-cyclobutyl-5-(4-methoxypyridin-3-yl)-2,3-dihydropyrrolo[3,4-b]quinolin-1-one]
0.038	0.25	3.52	–	–	COc1ccccc1-c1cccc2c(N)c3c(nc12)CN(C1CCC1)C3=O [Example 63, 9-Amino-2-cyclobutyl-5-(2-methoxyphenyl)-2,3-dihydropyrrolo[3,4-b]quinolin-1-one]
0.06	0.31	3.81	–	–	COc1ccc(-c2cccc3c(N)c4c(nc23)CN(C2CCC2)C4=O)c(OC)n1 [Example 64, 9-Amino-2-cyclobutyl-5-(2,6-dimethoxypyridin-3-yl)-2,3-dihydropyrrolo[3,4-b]quinolin-1-one]
0.092	0.2	2.68	–	–	COc1ccc(CN2Cc3nc4c(-c5c(F)cccc5OC)cccc4c(N)c3C2=O)cc1OC [Example 65, 9-Amino-2-(3,4-dimethoxybenzyl)-5-(2-fluoro-6-methoxyphenyl)-2,3-dihydropyrrolo[3,4-b]quinolin-1-one]
0.056	0.33	35.1	–	–	COc1ncccc1-c1cccc2c(N)c3c(nc12)CN(C1CC1)C3=O [Example 66, 9-Amino-2-cyclopropyl-5-(2-methoxypyridin-3-yl)-2,3-dihydropyrrolo[3,4-b]quinolin-1-one]
–	–	8.11	0.02	0.16	COc1cccc(F)c1-c1c(F)ccc2c(N)c3c(nc12)CN(C)C3=O [Example 70, 9-Amino-6-fluoro-5-(2-fluoro-6-methoxyphenyl)-2-methyl-2,3-dihydropyrrolo[3,4-b]quinolin-1-one]
0.02	0.12	13.3	–	–	CCN1Cc2nc3c(-c4cc(OC)ccc4F)cccc3c(N)c2C1=O [Example 72, 9-Amino-2-ethyl-5-(2-fluoro-5-methoxyphenyl)-2,3-dihydropyrrolo[3,4-b]quinolin-1-one]
−0.036	0.12	0.973	–	–	N#Cc1ccccc1-c1cccc2c(N)c3c(nc12)CN(C1CCC1)C3=O [Example 76, 2-(9-Amino-2-cyclobutyl-1-oxo-2,3-dihydro-1H-pyrrolo[3,4-b]quinolin-5-yl)benzonitrile]
0.088	0.42	0.74	–	–	COc1cc(-c2cccc3c(N)c4c(nc23)CN(C2CCC2)C4=O)c(OC)nn1 [Example 84, 9-Amino-2-cyclobutyl-5-(3,6-dimethoxypyradazin-4-yl)-2,3-dihydropyrrolo[3,4-b]quinolin-1-one]

Structure (SMILES)	Relative Potentiation for GABAA1 (GABAA receptor α1β2γ2)	Relative Potentiation for GABAA2 (GABAA receptor α2β3γ2)	Ki [1] [nM]	Relative Potentiation for GABAA1 (GABAA receptor α1β2γ2; [2])	Relative Potentiation for GABAA2 (GABAA receptor α2β3γ2; [2])
COc1ccc(F)c(-c2cccc3c(N)c4c(nc23)CN(C2CC2)C4=O)c1 [Example 60, 9-Amino-2-cyclopropyl-5-(2-fluoro-5-methoxyphenyl)-2,3-dihydropyrrolo[3,4-b]quinolin-1-one]	0.079	0.33	13.8	–	–
COc1ccc(F)cc1-c1c(F)ccc2c(N)c3c(nc12)CN(C1CC1)C3=O [Example 61, 9-Amino-2-cyclopropyl-6-fluoro-5-(5-fluoro-2-methoxyphenyl)-2,3-dihydropyrrolo[3,4-b]quinolin-1-one]	0.08	0.23	7.4	–	–
